Each molecule was assayed against T1, chicken gizzard smooth muscle myosin subfragment-1 chemically crosslinked to cardiac or skeletal actin (Gallus gallus, UniProt P10587) (assay: Smooth muscle myosin ATPase dose response assay (pyruvate kinase/horseradish peroxidase/pyruvate oxidase-coupled, amplex red fluorescence)). Conditions: read-out: IC50 Arithmetic Mean.
T1 construct: chicken gizzard smooth muscle myosin subfragment-1; from tissue; host or cells: chicken gizzard
Format: biochemical
Outline: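 ATPase monitored by amplex red fluorescence (ex 480/em 615 nm) via pyruvate oxidase/HRP coupling, pH 7.00, ATP 0.15 mM. Enzyme: smooth muscle S1-actin crosslinked conjugate, amount set empirically by titration. Dose-response fitted with 4-parameter Hill equation for IC50.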

T1 sequence (P02607 2-151): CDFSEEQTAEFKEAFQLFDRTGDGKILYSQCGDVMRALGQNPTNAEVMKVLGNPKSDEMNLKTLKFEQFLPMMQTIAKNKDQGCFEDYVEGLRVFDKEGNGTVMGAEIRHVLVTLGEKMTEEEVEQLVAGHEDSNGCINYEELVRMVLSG
T1 sequence (P10587 84-789): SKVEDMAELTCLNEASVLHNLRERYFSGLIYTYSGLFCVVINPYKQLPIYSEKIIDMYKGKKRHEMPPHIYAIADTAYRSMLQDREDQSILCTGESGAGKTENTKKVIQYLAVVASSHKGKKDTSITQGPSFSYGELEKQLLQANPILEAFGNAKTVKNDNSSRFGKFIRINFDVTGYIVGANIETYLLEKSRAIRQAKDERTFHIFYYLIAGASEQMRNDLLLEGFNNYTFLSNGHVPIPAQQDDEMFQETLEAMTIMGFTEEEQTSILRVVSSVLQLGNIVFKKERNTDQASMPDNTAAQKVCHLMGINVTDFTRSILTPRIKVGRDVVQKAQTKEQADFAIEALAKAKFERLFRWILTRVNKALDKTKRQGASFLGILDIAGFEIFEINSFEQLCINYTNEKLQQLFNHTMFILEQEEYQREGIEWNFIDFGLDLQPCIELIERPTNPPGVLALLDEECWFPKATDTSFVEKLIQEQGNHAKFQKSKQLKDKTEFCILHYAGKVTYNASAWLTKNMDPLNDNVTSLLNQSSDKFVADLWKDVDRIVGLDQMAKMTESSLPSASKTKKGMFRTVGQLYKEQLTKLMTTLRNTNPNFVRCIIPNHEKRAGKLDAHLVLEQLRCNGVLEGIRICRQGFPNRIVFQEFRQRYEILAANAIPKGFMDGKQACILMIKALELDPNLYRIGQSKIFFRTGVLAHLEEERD

In order of rising IC50:
1. N#Cc1ccccc1-c1ccc(C(=O)NCc2cccnc2NCCN)c(NCCc2cccc(F)c2)n1 [N-({2-[(2-aminoethyl)amino](3-pyridyl)}methyl)(6-(2-cyanophenyl)-2-{[2-(3-fluorophenyl)ethyl]amino}(3-pyridyl))carboxamide]  13 nM
2. N#Cc1ccccc1-c1ccc(C(=O)NCc2cccnc2NCCCN)c(NCCc2cccc(F)c2)n1 [N-({2-[(3-aminopropyl)amino](3-pyridyl)}methyl)(6-(2-cyanophenyl)-2-{[2-(3-fluorophenyl)ethyl]amino}(3-pyridyl))carboxamide]  17 nM
3. N#Cc1ccccc1-c1ccc(C(=O)NCC(N)=O)c(NCCc2cccc(F)c2)n1 [N-(carbamoylmethyl)(6-(2-cyanophenyl)-2-{[2-(3-fluorophenyl)ethyl]amino}(3-pyridyl))carboxamide]  104 nM
4. NCCNc1ncccc1CNC(=O)c1ccc(-c2cn[nH]c2)nc1NCCc1cccc(F)c1 [N-({2-[(2-aminoethyl)amino](3-pyridyl)}methyl)(2-{[2-(3-fluorophenyl)ethyl]amino}-6-pyrazol-4-yl(3-pyridyl))carboxamide]  122 nM
5. NCCCNc1ncccc1CNC(=O)c1ccc(-c2cn[nH]c2)nc1NCCc1cccc(F)c1 [N-({2-[(3-aminopropyl)amino](3-pyridyl)}methyl)(2-{[2-(3-fluorophenyl)ethyl]amino}-6-pyrazol-4-yl(3-pyridyl))carboxamide]  129 nM
6. NC(=O)CNC(=O)c1cc(F)c(-c2cn[nH]c2)nc1NCCc1cccc(F)c1 [N-(carbamoylmethyl)(5-fluoro-2-{[2-(3-fluorophenyl)ethyl]amino}-6-pyrazol-4-yl(3-pyridyl))carboxamide]  140 nM
7. N#Cc1ccccc1-c1ccc(C(=O)N[C@@H]2CCCNC2=O)c(NCCc2cccc(F)c2)n1 [N-((3R)-2-oxo(3-piperidyl))(6-(2-cyanophenyl)-2-{[2-(3-fluorophenyl)ethyl]amino}(3-pyridyl))carboxamide]  352 nM
8. NC(=O)CNC(=O)c1ccc(-c2ccc(CO)s2)nc1NCCc1cccc(F)c1 [N-(carbamoylmethyl)(2-{[2-(3-fluorophenyl)ethyl]amino}-6-[5-(hydroxymethyl)(2-thienyl)](3-pyridyl))carboxamide]  496 nM
9. NC(=O)CNC(=O)c1ccc(-c2ccccc2)nc1NCCc1ccccc1 [N-(carbamoylmethyl){6-phenyl-2-[(2-phenylethyl)amino](3-pyridyl)}carboxamide]  810 nM
10. O=C(NCc1ccno1)c1ccc(-c2ccccc2)nc1NCCc1ccccn1 [N-(isoxazol-5-ylmethyl){6-phenyl-2-[(2-(2-pyridyl)ethyl)amino](3-pyridyl)}carboxamide]  836 nM
11. N#Cc1ccccc1-c1ccc(C(=O)NCC2CCCCCN2)c(NCCc2cccc(F)c2)n1 (stereo not shown) [N-(azaperhydroepin-2-ylmethyl)(6-(2-cyanophenyl)-2-{[2-(3-fluorophenyl)ethyl]amino}(3-pyridyl))carboxamide]  2500 nM
12. N#Cc1ccccc1-c1ccc(C(=O)N[C@H]2CCNC2=O)c(NCCc2cccc(F)c2)n1 [N-((3S)-2-oxopyrrolidin-3-yl)(6-(2-cyanophenyl)-2-{[2-(3-fluorophenyl)ethyl]amino}(3-pyridyl))carboxamide]  3250 nM
13. N#Cc1ccccc1-c1ccc(C(=O)N[C@H]2CCCNC2=O)c(NCCc2cccc(F)c2)n1 [N-((3S)-2-oxo(3-piperidyl))(6-(2-cyanophenyl)-2-{[2-(3-fluorophenyl)ethyl]amino}(3-pyridyl))carboxamide]  5610 nM
14. O=C(NCc1ncc[nH]1)c1ccc(-c2ccccc2)nc1NCCc1ccccn1 [N-(imidazol-2-ylmethyl){6-phenyl-2-[(2-(2-pyridyl)ethyl)amino](3-pyridyl)}carboxamide]  6150 nM
15. O=C(NCC1CCCO1)c1ccc(-c2ccccc2)nc1NCCc1ccccn1 (stereo not shown) [N-(oxolan-2-ylmethyl){6-phenyl-2-[(2-(2-pyridyl)ethyl)amino](3-pyridyl)}carboxamide]  11000 nM
16. CC(C)NC(=O)c1ccc(-c2ccccc2)nc1NCCc1ccccn1 [N-(methylethyl){6-phenyl-2-[(2-(2-pyridyl)ethyl)amino](3-pyridyl)}carboxamide]  13300 nM

Reference: patent publication US7932270B2 (Cytokinetics, Inc., priority 2006, dated 2011)
